For the assay, the target named is endogenous cellular BACE2 in the Ins1e rat cell line (Rattus norvegicus (Rat), UniProt Q6IE75). As to the kind of experiment: Assay for BACE inhibition by measuring cellular TMEM27 cleavage (ELISA of shed hTMEM27 from INS-TMEM27 cells). To be noted: assay a): cellular TMEM27 cleavage, INS-TMEM27 cells (superscript a). The class given is cell-based. The text has this: a) Assay for BACE Inhibition by Measuring Cellular TMEM27 Cleavage:
The assay uses the principle of inhibition of human TMEM27 cleavage by endogenous cellular BACE2 in the Ins1e rat cell line and shedding from the cell surface into the culture medium, followed by detection in an ELISA assay. Inhibition of BACE2 prevents the cleavage and shedding in a dose-dependent manner.
The stable cell line “INS-TMEM27” represents an INS1e-derived cell line with inducible expression (using the TetOn system) of full-length hTMEM27 in a doxycycline-dependent manner. The cells are cultured throughout the experiment in RPMI1640+Glutamax (Invitrogen) Penicillin/Streptomycin, 10% Fetal bovine serum, […], […], 100 micrograms/ml G418 and 100 microgram/ml hygromycin and are grown inadherent culture at 37° C. in a standard CO2 cell culture incubator.
INS-TMEM27 cells are seeded in 96-well plates. After 2 days in culture, BACE2 inhibitor is added in a range of concentrations as required by the assay and after a further two hours, doxycycline is added to a final concentration of 500 ng/ml. The cells are incubated for a further 46 hours and the supernatant harvested for detection of shed TMEM27.
An ELISA assay (using a pair of mouse anti-human-TMEM27 antibodies, raised against the extracellular domain of TMEM27) is used for detection of TMEM27 in the culture medium. An EC50 for BACE2 inhibition is calculated using the ELISA readout for each inhibitor concentration with standard curve-fitting software such as XLFit for the Excel spreadsheet program.

Structures are written as SMILES.

Sequence of endogenous cellular BACE2 in the Ins1e rat cell line (Q6IE75 63-514): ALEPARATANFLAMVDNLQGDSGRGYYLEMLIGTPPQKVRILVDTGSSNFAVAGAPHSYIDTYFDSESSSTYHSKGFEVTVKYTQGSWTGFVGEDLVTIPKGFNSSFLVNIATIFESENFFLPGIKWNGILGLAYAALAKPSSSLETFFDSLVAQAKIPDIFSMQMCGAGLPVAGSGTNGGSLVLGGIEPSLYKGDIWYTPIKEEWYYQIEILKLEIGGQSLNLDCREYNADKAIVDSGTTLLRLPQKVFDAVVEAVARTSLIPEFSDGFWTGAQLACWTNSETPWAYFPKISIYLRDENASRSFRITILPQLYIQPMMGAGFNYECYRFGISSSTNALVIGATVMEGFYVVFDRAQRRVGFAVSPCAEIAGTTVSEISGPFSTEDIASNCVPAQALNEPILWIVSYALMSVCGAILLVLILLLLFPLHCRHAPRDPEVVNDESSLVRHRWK

Broadly, the IC50 is the concentration at which inhibition is half-maximal. The low end stands for greater potency in that assay, the high end for weaker potency in that assay. `CN1C(=O)C(C)(C)[C@@](C)(c2cc(NC3CCc4cc(Cl)cnc43)ccc2F)N=C1N` (stereo partly drawn) [Example 62, (6S)-2-Amino-6-(5-(3-chloro-6,7-dihydro-5H-cyclopenta[b]pyridin-7-ylamino)-2-fluorophenyl)-3,5,5,6-tetramethyl-5,6-dihydropyrimidin-4(3H)-one] came in with an IC50 of 1 nM. `CN1C(=O)C(C)(C)[C@@](C)(c2cc(NC3CCc4cc(F)ccc43)ccc2F)N=C1N` (stereo partly drawn) [Example 35, (6S)-2-Amino-6-(2-fluoro-5-(5-fluoro-2,3-dihydro-1H-inden-1-ylamino)phenyl)-3,5,5,6-tetramethyl-5,6-dihydropyrimidin-4(3H)-one]: the IC50 was found to be 84 nM. This IC50 is about 84-fold higher than that of the compound before. Under `CN1C(=O)C(C)(C)[C@@](C)(c2cc(NC3CCC(CC(=O)O)C3(C)C)ccc2F)N=C1N` (stereo partly drawn) [Example 116, 2-(3-(3-((S)-2-Amino-1,4,5,5-tetramethyl-6-oxo-1,4,5,6-tetrahydropyrimidin-4-yl)-4-fluorophenylamino)-2,2-dimethylcyclopentyl)acetic acid] stands 2160 nM; under `CN1C(=O)C(C)(C)[C@@](C)(c2cc(Nc3cccnc3)ccc2F)N=C1N` [Example 138, (S)-2-Amino-6-(2-fluoro-5-(pyridin-3-ylamino)phenyl)-3,5,5,6-tetramethyl-5,6-dihydropyrimidin-4(3H)-one], 500 nM; under `CN1C(=O)C(C)(C)[C@@](C)(c2cc(NC(=O)C(C)(O)c3ccc(Cl)cc3)ccc2F)N=C1N` (stereo partly drawn) [Example 141, N-[3-((S)-2-Amino-1,4,5,5-tetramethyl-6-oxo-1,4,5,6-tetrahydro-pyrimidin-4-yl)-4-fluoro-phenyl]-2-(4-chloro-phenyl)-2-hydroxy-propionamide], 332 nM. Under `CN1C(=O)C(C)(C)[C@@](C)(c2cc(NC(=O)C3CC3)ccc2F)N=C1N` [Example 17, (S)—N-(3-(2-Amino-1,4,5,5-tetramethyl-6-oxo-1,4,5,6-tetrahydropyrimidin-4-yl)-4-fluorophenyl)cyclopropanecarboxamide] stands 360 nM. The same measure for `CN1C(=O)C(C)(C)[C@@](C)(c2cc(NC3COc4cc(Cl)ccc43)ccc2F)N=C1N` (stereo partly drawn) [Example 133, (S)-2-Amino-6-[5-(6-chloro-2,3-dihydro-benzofuran-3-ylamino)-2-fluoro-phenyl]-3,5,5,6-tetramethyl-5,6-dihydro-3H-pyrimidin-4-one]: 41 nM. For `CN1C(=O)C(C)(C)[C@@](C)(c2cc(NC3CCN(Cc4ccccc4)C3)ccc2F)N=C1N` (stereo partly drawn) [Example 32, (6S)-2-Amino-6-(5-(1-benzylpyrrolidin-3-ylamino)-2-fluorophenyl)-3,5,5,6-tetramethyl-5,6-dihydropyrimidin-4(3H)-one], the IC50 came out at 32 nM. The IC50 values of the last two compounds are within 1.5-fold of each other.

As to `COc1cc(F)c(F)cc1Nc1ccc(F)c([C@@]2(C)N=C(N)N(C)C(=O)C2(C)C)c1` [Example 102, (S)-2-Amino-6-[5-(4,5-difluoro-2-methoxy-phenylamino)-2-fluoro-phenyl]-3,5,5,6-tetramethyl-5,6-dihydro-3H-pyrimidin-4-one], the IC50 came to 217 nM. This IC50 is about 6.8-fold higher than that of the compound before. The same measure for `CN1C(=O)C(C)(C)[C@@](C)(c2cc(NC(=O)C3(C(F)(F)F)CCC3)ccc2F)N=C1N` [Example 4, 1-Trifluoromethyl-cyclobutanecarboxylic acid [3-((S)-2-amino-1,4,5,5-tetramethyl-6-oxo-1,4,5,6-tetrahydro-pyrimidin-4-yl)-4-fluoro-phenyl]-amide]: 85 nM; for `Cc1ccccc1Nc1ccc(F)c([C@@]2(C)N=C(N)N(C)C(=O)C2(C)C)c1` [Example 55, (S)-2-Amino-6-(2-fluoro-5-(o-tolylamino)phenyl)-3,5,5,6-tetramethyl-5,6-dihydro-pyrimidin-4(3H)-one]: 115 nM. The same measure for `CC(=O)N1CC(Nc2ccc(F)c([C@@]3(C)N=C(N)N(C)C(=O)C3(C)C)c2)c2ccc(F)cc21` (stereo partly drawn) [Example 137, (S)-6-[5-(1-Acetyl-6-fluoro-2,3-dihydro-1H-indol-3-ylamino)-2-fluoro-phenyl]-2-amino-3,5,5,6-tetramethyl-5,6-dihydro-3H-pyrimidin-4-one]: 124 nM; for `CN1C(=O)C(C)(C)[C@@](C)(c2cc(NC3CCc4cccc(F)c43)ccc2F)N=C1N` (stereo partly drawn) [Example 63, (6S)-2-Amino-6-(2-fluoro-5-(7-fluoro-2,3-dihydro-1H-inden-1-ylamino)phenyl)-3,5,5,6-tetramethyl-5,6-dihydropyrimidin-4(3H)-one]: 21 nM; for `CN1C(=O)C(C)(C)[C@@](C)(c2cc(NC3CCOc4cc(F)ccc43)ccc2F)N=C1N` (stereo partly drawn) [Example 140, (S)-2-Amino-6-[2-fluoro-5-(7-fluoro-chroman-4-ylamino)-phenyl]-3,5,5,6-tetramethyl-5,6-dihydro-3H-pyrimidin-4-one]: 47 nM. Under `CCOC(=O)[C@H]1[C@@H]2C[C@@H](O)C(Nc3ccc(F)c([C@@]4(C)N=C(N)N(C)C(=O)C4(C)C)c3)[C@@H]21` (stereo partly drawn) [Example 100, (1S,3R,5R,6S)-ethyl 2-(3-((S)-2-amino-1,4,5,5-tetramethyl-6-oxo-1,4,5,6-tetrahydropyrimidin-4-yl)-4-fluorophenylamino)-3-hydroxybicyclo[3.1.0]hexane-6-carboxylate] stands 1 nM. `CN1C(=O)C(C)(C)[C@@](C)(c2cc(Nc3ccc(F)cc3F)ccc2F)N=C1N` [Example 81, (S)-2-Amino-6-(5-(2,4-difluorophenylamino)-2-fluorophenyl)-3,5,5,6-tetramethyl-5,6-dihydropyrimidin-4(3H)-one] came in with an IC50 of 223 nM. This IC50 lies about 220-fold higher than the previous one. Under `CN1C(=O)C(C)(C)[C@@](C)(c2cc(Nc3ccn(C)n3)ccc2F)N=C1N` [Example 99, (S)-2-Amino-6-[2-fluoro-5-(1-methyl-1H-pyrazol-3-ylamino)-phenyl]-3,5,5,6-tetramethyl-5,6-dihydro-3H-pyrimidin-4-one] stands 6 nM; under `CN1C(=O)C(C)(C)[C@@](C)(c2cc(NCc3nn(C)cc3Cl)ccc2F)N=C1N` [Example 96, (S)-2-Amino-6-{5-[(4-chloro-1-methyl-1H-pyrazol-3-ylmethyl)-amino]-2-fluoro-phenyl}-3,5,5,6-tetramethyl-5,6-dihydro-3H-pyrimidin-4-one], 1 nM.

Compound `CN1C(=O)C(C)(C)[C@@](C)(c2cc(NCc3cc[nH]n3)ccc2F)N=C1N` [Example 61, (S)-2-Amino-6-{2-fluoro-5-[(1H-pyrazol-3-ylmethyl)-amino]-phenyl}-3,5,5,6-tetramethyl-5,6-dihydro-3H-pyrimidin-4-one] had an IC50 of 59 nM. Compared with the last compound, the IC50 is about 59-fold higher. The same measure for `CN1C(=O)C(C)(C)[C@@](C)(c2cc(Nc3ccc(C#N)cc3F)ccc2F)N=C1N` [Example 152, (S)-4-(3-(2-Amino-1,4,5,5-tetramethyl-6-oxo-1,4,5,6-tetrahydropyrimidin-4-yl)-4-fluorophenylamino)-3-fluorobenzonitrile]: 2 nM; for `CN1C(=O)C(C)(C)[C@@](C)(c2cc(NC(=O)C(C)(O)c3ccccc3)ccc2F)N=C1N` (stereo partly drawn) [Example 139, N-[3-((S)-2-Amino-1,4,5,5-tetramethyl-6-oxo-1,4,5,6-tetrahydro-pyrimidin-4-yl)-4-fluoro-phenyl]-2-hydroxy-2-phenyl-propionamide]: 31 nM; for `CN1C(=O)C(C)(C)[C@@](C)(c2cc(NC(=O)C(C(F)(F)F)C(F)(F)F)ccc2F)N=C1N` [Example 7, N-[3-((S)-2-Amino-1,4,5,5-tetramethyl-6-oxo-1,4,5,6-tetrahydro-pyrimidin-4-yl)-4-fluoro-phenyl]-3,3,3-trifluoro-2-trifluoromethyl-propionamide]: 1010 nM. Under `CN1C(=O)C(C)(C)[C@@](C)(c2cc(NC(=O)C3(O)CCC3)ccc2F)N=C1N` [Example 147, (S)—N-(3-(2-amino-1,4,5,5-tetramethyl-6-oxo-1,4,5,6-tetrahydropyrimidin-4-yl)-4-fluorophenyl)-1-hydroxycyclobutanecarboxamide] stands 269 nM; under `CCC1CC(Nc2ccc(F)c([C@@]3(C)N=C(N)N(C)C(=O)C3(C)C)c2)c2ccccc21` (stereo partly drawn) [Example 113, (S)-2-Amino-6-[5-(3-ethyl-indan-1-ylamino)-2-fluoro-phenyl]-3,5,5,6-tetramethyl-5,6-dihydro-3H-pyrimidin-4-one], 36 nM; under `CN1C(=O)C(C)(C)[C@@](C)(c2cc(Nc3ccc(F)cc3)ccc2F)N=C1N` [Example 89, (S)-2-Amino-6-[2-fluoro-5-(4-fluoro-phenylamino)-phenyl]-3,5,5,6-tetramethyl-5,6-dihydro-3H-pyrimidin-4-one], 1140 nM. Under `CN1C(=O)C(C)(C)[C@@](C)(c2cc(Nc3ccccc3Cl)ccc2F)N=C1N` [Example 119, (S)-2-Amino-6-(5-(2-chlorophenylamino)-2-fluorophenyl)-3,5,5,6-tetramethyl-5,6-dihydropyrimidin-4(3H)-one] stands 16 nM.

As to `CN1C(=O)C(C)(C)[C@@](C)(c2cc(NC3CCC(c4ccccc4)C3)ccc2F)N=C1N` (stereo partly drawn) [Example 33, (6S)-2-Amino-6-(2-fluoro-5-(3-phenylcyclopentylamino)phenyl)-3,5,5,6-tetramethyl-5,6-dihydropyrimidin-4(3H)-one], the IC50 is 29 nM.

These data come from US8815881B2 (Hoffmann-La Roche Inc., priority 2010, dated 2014).
